Read-outs that look alike come from different tables or passages of the source.

Holding throughout (assay type): cell-based
A short description of assay [1]: Mitochondrial membrane potential, JC-1 (read-out 48 h). Conditions: PBL, JC-1, 48 h. The procedure, abridged: (§1)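 Tumor cells were treated with test compounds (adherent cells after 24 h of attachment, suspension cells immediately), medium holding up to 5% DMSO. After 48 h, JC-1 (2-5 μg/ml in added medium) was applied for 30 min. Fluorescence microscopy (FITC/TRITC filters) scored the fraction of cells with dissipated mitochondrial membrane potential as categories A-D.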

For assay [2], the system named is tumor cells. The description is as above. Particulars: JC-1, 48 h. The procedure, abridged:
as §1

A short description of assay [3]: MTS proliferation assay (72 h read-out). Particulars: MRC5 cells. The procedure, abridged: (§2)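 Viability was read by MTS absorbance at 492 nm after 3 h with reagent. Before that, cells plated a day earlier at 1.5×10^3–10^4 per well had been incubated with test compound at final concentrations of 0.001–10 μM for 72 h; activity is given as category scores A–D.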
On the technique in general: Tetrazolium assays rely on reduction of a dye to a coloured formazan, in cell work by metabolically active cells.

The subject of assay [4] is tumor cells. The assay is described as follows: MTS proliferation assay (72 h read-out). Put shortly:
as §2

The nature of assay [5]: Hoechst 33342 nuclear staining (48 h read-out). Put shortly:
(§3)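 Adherent cells pre-spread 24 h before dosing, suspension cells dosed at seeding; compounds at 0.001 μM-10 μM final, 48 h at culture conditions. Hoechst 33342 (2-5 μg/ml) added for 30 min, then fluorescence microscopy scoring of apoptotic nuclear fraction and apoptosis-specific morphology, reported as scores A-D.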

In assay [6] the test system is tumor cells. Briefly: Hoechst 33342 nuclear staining (48 h read-out). Put shortly: as §3
Setting [7] is: Homo sapiens, HeLa cells, read-out: Mitochondrial membrane potential (read-out 48 h) HeLa.
Where [8] appears, read: Homo sapiens, Jurkat cells, read-out: Mitochondrial membrane potential (read-out 48 h) Jurkat.
[9] abbreviates: Homo sapiens, MCF7 cells, read-out: Mitochondrial membrane potential (read-out 48 h) MCF7.
[10] abbreviates: Homo sapiens, HT-1080, HT1080 cells, read-out: MTS proliferation assay IC50, HT1080.
Setting [11] is: Homo sapiens, HeLa cells, read-out: MTS proliferation assay IC50, HeLa.
[12] abbreviates: Homo sapiens, Jurkat cells, read-out: MTS proliferation assay IC50, Jurkat.
Where [13] appears, read: Jily cells, read-out: MTS proliferation assay IC50, Jily.
Setting [14] is: Homo sapiens, MRC5 cells, read-out: Hoechst 33342 nuclear staining EC50, MRC5.
The mark [15] stands for this setting: PBL, read-out: Hoechst 33342 nuclear staining EC50, PBL.
Where [16] appears, read: Homo sapiens, HeLa cells, read-out: Hoechst 33342 nuclear staining EC50, HeLa.
Setting [17] is: Homo sapiens, Jurkat cells, read-out: Hoechst 33342 nuclear staining EC50, Jurkat.
The mark [18] stands for this setting: Jily cells, read-out: Hoechst 33342 nuclear staining EC50, Jily.
Where [19] appears, read: HeLa cells, read-out: Mitochondrial membrane potential (read-out 48 h) HeLa.
Setting [20] is: Jily cells, read-out: Mitochondrial membrane potential (read-out 48 h) Jily.
Where [21] appears, read: Jurkat cells, read-out: Mitochondrial membrane potential (read-out 48 h) Jurkat.
Setting [22] is: MCF7 cells, read-out: Mitochondrial membrane potential (read-out 48 h) MCF7.
The mark [23] stands for this setting: HT1080 cells, read-out: MTS proliferation assay IC50, HT1080.
[24] abbreviates: HeLa cells, read-out: MTS proliferation assay IC50, HeLa.
[25] abbreviates: Jurkat cells, read-out: MTS proliferation assay IC50, Jurkat.
Setting [26] is: MRC5 cells, read-out: Hoechst 33342 nuclear staining EC50, MRC5.
Where [27] appears, read: HeLa cells, read-out: Hoechst 33342 nuclear staining EC50, HeLa.
The mark [28] stands for this setting: Jurkat cells, read-out: Hoechst 33342 nuclear staining EC50, Jurkat.

For the compound `CCOc1ccc(F)cc1C(=O)COc1ccc(Cl)cc1C#N` [Example 143, ω-(4-Chloro-2-cyanophenoxy)-2-ethoxy-5-fluoroacetophenone], the EC50 in assay [1] is greater than 1000 nM; in the assay on tumor cells [2] (setting [7]) it was 10 to 100 nM; in the assay on tumor cells [2] (setting [8]), less than 10 nM; with tumor cells [2] (setting [9]), 10 to 100 nM; in assay [5] (setting [14]), less than 10 nM; in assay [5] (setting [15]), greater than 1000 nM. The EC50 is 10 to 100 nM in the assay on tumor cells [6] (setting [16]), less than 10 nM in the assay on tumor cells [6] (setting [17]) and less than 10 nM with tumor cells [6] (setting [18]). Besides, the IC50 (in assay [3] (Homo sapiens); in the assay on tumor cells [4] (setting [10]); in the assay with tumor cells [4] (setting [11]); in the assay on tumor cells [4] (setting [12]); in the assay on tumor cells [4] (setting [13])) was 10 to 100 nM throughout.

Consider `COc1ccccc1C(=O)c1oc2ccc(Cl)cc2c1N` [Ref B, reference compound], for which the EC50 in assay [1] is 100 to 1000 nM; with tumor cells [2] (setting [19]), greater than 1000 nM; in the assay on tumor cells [2] (setting [20]) it was 100 to 1000 nM; in the assay with tumor cells [2] (setting [21]) it was 100 to 1000 nM; in the assay on tumor cells [2] (setting [22]) it was greater than 1000 nM; in assay [5] (setting [26]) it was greater than 1000 nM. Further, the EC50 in assay [5] (setting [15]) is greater than 1000 nM; in the assay on tumor cells [6] (setting [27]), greater than 1000 nM; in the assay on tumor cells [6] (setting [18]) it was 100 to 1000 nM; in the assay with tumor cells [6] (setting [28]), 100 to 1000 nM. In addition, the IC50 (in assay [3]; with tumor cells [4] (setting [23]); with tumor cells [4] (setting [24]); in the assay with tumor cells [4] (setting [13]); with tumor cells [4] (setting [25])) was 100 to 1000 nM throughout.

Regarding `COc1ccc(OC)c(C(=O)c2oc3ccc(Cl)cc3c2O)c1` [Ref C, reference compound], the EC50 (in assay [1]; in the assay on tumor cells [2] (setting [19]); with tumor cells [2] (setting [20]); with tumor cells [2] (setting [21]); with tumor cells [2] (setting [22]); in assay [5] (setting [26])) was greater than 1000 nM throughout. Moreover, the EC50 (in assay [5] (setting [15]); in the assay on tumor cells [6] (setting [27]); in the assay on tumor cells [6] (setting [18]); in the assay on tumor cells [6] (setting [28])) was greater than 1000 nM each time. Besides, the IC50 (in assay [3]; with tumor cells [4] (setting [23]); in the assay on tumor cells [4] (setting [24]); in the assay on tumor cells [4] (setting [13]); in the assay with tumor cells [4] (setting [25])) was greater than 1000 nM in each case.

On to `COc1ccc(OC)c(C(=O)COc2ccc(Cl)cc2C#N)c1` [Ref D, reference compound], for which the EC50 was greater than 1000 nM in assay [1]; greater than 1000 nM in the assay on tumor cells [2] (setting [19]); 100 to 1000 nM in the assay on tumor cells [2] (setting [21]); greater than 1000 nM with tumor cells [2] (setting [22]); greater than 1000 nM in assay [5] (setting [26]); greater than 1000 nM in assay [5] (setting [15]). For the same compound, the figures for the EC50 with tumor cells [6] (setting [27]), in the assay on tumor cells [6] (setting [18]) and in the assay with tumor cells [6] (setting [28]) were greater than 1000 nM, 100 to 1000 nM and 100 to 1000 nM, respectively. The IC50 in assay [3] was greater than 1000 nM; in the assay with tumor cells [4] (setting [23]), greater than 1000 nM; with tumor cells [4] (setting [24]) it was 100 to 1000 nM; in the assay with tumor cells [4] (setting [13]), 100 to 1000 nM; in the assay with tumor cells [4] (setting [25]) it was 100 to 1000 nM.

For `COc1ccc(OC)c(C(=O)c2oc3ccccc3c2O)c1` [Reference Example A, 2-(2,5-dimethoxybenzoyl)-3-hydroxybenzofuran, reference compound], the EC50 (in assay [1]; in the assay with tumor cells [2] (setting [7]); in the assay on tumor cells [2] (setting [8]); in the assay on tumor cells [2] (setting [9]); with tumor cells [2] (setting [20]); in assay [5] (setting [14])) was greater than 1000 nM each time. For the same compound, the EC50 (in assay [5] (setting [15]); with tumor cells [6] (setting [16]); in the assay on tumor cells [6] (setting [17]); in the assay on tumor cells [6] (setting [18])) was greater than 1000 nM throughout. The IC50 (in assay [3] (Homo sapiens); in the assay with tumor cells [4] (setting [10]); in the assay on tumor cells [4] (setting [11]); with tumor cells [4] (setting [12]); in the assay with tumor cells [4] (setting [13])) was greater than 1000 nM throughout.

The values are drawn from patent publication US8486996B2, “Aroylfuranes and aroylthiophenes” (Basilea Pharmaceutica AG, priority 2006, dated 2013).
